Reference: PMC10986609, “Identification of fungal natural products with potent inhibition in Toxoplasma gondii” (Microbiology Spectrum, 2024)
Like-named read-outs stand apart in the source and are kept apart here. Non-standard residues stand in square brackets, D forms with d. Residues, ends and D or L forms follow the SMILES beside them. *: point of attachment. X1 = CC(C)C[C@@H](CN1CCC[N+]2=C1CCC2)N*; X2 = CC(C)C[C@@H](C[N+]1=C2CCCN2CCC1)N*; Pip = O=C(O)[C@@H]1CCCCN1; Iva = CC[C@](C)(N)C(=O)O; Aib = CC(C)(N)C(=O)O; βAla = NCCC(=O)O

Legend:
[1] = test system: Toxoplasma gondii tachyzoites (RH88); assay: microbe, parasite or virus in culture; conditions: read-out: TgRH88 IC50 (mean ± SEM)
Method: For the initial fixed concentration screening and IC50 determination in T. gondii, we utilized a luciferase expressing RH88 strain to quantify the number of live, actively replicating parasites. To construct this strain, the Fluc and DHFR selection markers had been integrated into the UPRT locus through CRISPR/Cas9, rendering the strain pyrimethamine-resistant ([6]). Screening was performed using a pure compound library provided by the University of Oklahoma Natural Products Discovery Group, containing 683 compounds derived primarily from fungal secondary metabolites. For purposes of testing, HFFs were grown in 96-well microtiter plates in preparation. The media we used to grow cells was referred to a D10 media that was composed of Dulbecco's Modified Eagle Medium (Thermo Fisher; Cat # 11995073), 10% Fetal Bovine Serum (Sigma-Aldrich; Cat # 12306C), 1 × non-essential amino acids (100 ×; Thermo Fisher; Cat # 11140050), HEPES buffer (1M; Fisher Scientific; Cat # SH3023701) at 0.4M, and 10 mg/mL of gentamicin (Fisher Scientific; Cat # 15710072). Compounds were then diluted to 10 µM in 100 µL of fresh D10 media. Each plate utilized artemisinin and DMSO vehicle controls. To each well, 2,500 parasites per 100 µL of D10 media were added. Three technical replicates were then performed. After 48 hours, 160 µL of the D10 media was removed, and plates were subjected to freezing then thawing. Following this, 10 µL of the passive lysis buffer (Promega; Cat# E1910) was added and incubated at room temperature for 15 min. Finally, 100 µL of luciferase assay reagent (Promega; Cat# E1501) was added to each well, and luminescence was measured using a PHERAstar FSX plate reader (BMG Labtech, Germany).
(§1) For IC50 and cytotoxicity determination, we used 384 plates with confluent HFF cells. Compounds were serially diluted 3-fold with a starting concentration of 20 µM. Samples were further diluted by adding an equal volume of media containing 700 parasites. DMSO and […] of KAE609 were used as negative and positive controls, respectively. Assays were performed with a total of three technical replicates and two biological replicates. After incubation for 48 hours, 50 µL of media was removed, and plates were subjected to freezing and thawing. Following this, 10 µL of passive lysis buffer was added and plates were incubated for 15 min at room temperature. Finally, 30 µL of luciferase reagent was added, and the luminescence was measured immediately using a PHERAstar FSX. In parallel, cytotoxicity dose response was performed in the same fashion without the addition of parasites. Cell counting kit-8 reagent (GlpBio; Cat # GK10001) was added at a 1:10 dilution and incubated at 37°C, 5% CO2 for 1 hour. The absorbance was then measured at 450 nm using a PHERAstar FSX. The data management system CDD vault was used for curve fitting and IC50 determination.

[2] = test system: human foreskin fibroblasts (HFFs); assay: HFF cytotoxicity dose response (cell counting kit-8); conditions: for IC50: read-out: HFF IC50 (mean ± SEM)
Method: as §1, with “Samples” for “For IC50 and cytotoxicity determination, we used 384 plates with confluent HFF cells. Compounds were serially diluted 3-fold with a starting concentration of 20 µM. Samples”

[3] = test system: Plasmodium falciparum (Dd2); conditions: read-out: PfDd2 IC50, cited from earlier work
in vitro = conditions: human
Method: as §1, with “Samples” for “For IC50 and cytotoxicity determination, we used 384 plates with confluent HFF cells. Compounds were serially diluted 3-fold with a starting concentration of 20 µM. Samples”

[4] = luciferase expressing RH88 in HFF, 48 hours
[5] = cytotoxicity, no parasites, 48 hours, CCK-8
[6] = mean of duplicate or triplicate experiments
[7] = highest concentrations tested (20 µM)

Compound | IC50 ([1]; Toxoplasma gondii, 48 h) [µM] | IC50 ([2]; Homo sapiens, Fibroblast, 48 h) [µM] | IC50 [1, 4] [µM] | IC50 [2, 5] [µM] | other results
C[C@H]1CCC/C=C/[C@@H]2C[C@H](O)C[C@H]2[C@H](O)/C=C/C(=O)O1 [compound 160010, Brefeldin A] | 0.243 ± 0.0784 | 6.43 | – | – | –
C=C1Cc2ccc3[nH]c4c(c3c2[C@H]2[C@@H]1C[C@@H]2C(C)(C)O)C[C@@H]1CC[C@@]2(O)C3=C[C@@H](O)[C@@H](C(=C)C)O[C@H]3CC[C@]2(C)[C@@]41C [compound 120253, Secopenitrem D] | – | – | 14.1 | > 20 | –
CC[C@](C)(NC(=O)[C@H](CC(C)C)NC(=O)[C@H](C)NC(=O)C(C)(C)NC(=O)[C@@H]1CCCCN1C(=O)C(C)(C)NC(=O)C(C)(C)NC(=O)CNC(=O)CCNC(=O)[C@H](CC(C)C)NC(=O)C(C)(C)NC(=O)C(C)(C)NC(=O)[C@@H]1CCCCN1C(=O)C(C)(C)NC(=O)[C@@H]1CCCCN1C(C)=O)C(=O)N[C@@H](CC(C)C)CN1CCC[N+]2=C1CCC2 [compound 150003, Efrapeptin F] (Ac-[Pip][Aib][Pip][Aib][Aib]L[βAla]G[Aib][Aib][Pip][Aib]AL[Iva]-X1; N-terminus and C-terminus assumed) | – | – | 0.0555 ± 0.0118 | > 20 | IC50 ([3]; ref Lee et al. ([8])): 0.399 µM
COC(=O)[C@@]12Oc3ccc(-c4ccc5c(c4O)C(O)C4=C(O)C[C@H](C)[C@@H](O)[C@]4(C(=O)OC)O5)c(O)c3C(=O)C1=C(O)C[C@H](C)[C@H]2O (some centres unmarked) [compound 130002, Secalonic acid D] | 0.334 ± 0.103 | 3.73 | – | – | IC50 [3, 6]: 1.3 µM
COC(=O)[C@@]12Oc3cc4c(c(O)c3C(=O)C1=C(O)CC[C@@H]2O)[C@@H]1C=C[C@@]2(C4)C(=O)c3cc(C)cc(O)c3C(O)=C2C1=O [compound 130144, Xanthoquinodin A1] | 0.112 ± 0.074 | 12.9 | – | – | IC50 (in vitro): 12.9 ± 1.9 µM; IC50 [3, 6]: 0.25 µM
CCCCC[C@@H](O)C[C@@H](O)C[C@@H]1Cc2cc3cc(OC)c(-c4c(OC)cc5cc6c(c(O)c5c4O)C(=O)O[C@H](C[C@H](O)C[C@H](O)CCCCC)C6)c(O)c3c(O)c2C(=O)O1 [compound 150020, Dinapinone A] | – | – | 3.17 | 6.67 | –
CC[C@](C)(NC(=O)[C@H](CC(C)C)NC(=O)[C@H](C)NC(=O)C(C)(C)NC(=O)[C@@H]1CCCCN1C(=O)C(C)(C)NC(=O)C(C)(C)NC(=O)CNC(=O)CCNC(=O)[C@H](CC(C)C)NC(=O)C(C)(C)NC(=O)C(C)(C)NC(=O)[C@@H]1CCCCN1C(=O)C(C)(C)NC(=O)[C@@H]1CCCCN1C(C)=O)C(=O)N[C@@H](CC(C)C)C[N+]1=C2CCCN2CCC1 [compound 150003, Efrapeptin F] (Ac-[Pip][Aib][Pip][Aib][Aib]L[βAla]G[Aib][Aib][Pip][Aib]AL[Iva]-X2) | – | – | – | – | toxicity to HFFs [2, 7]: no toxicity
PF-1140 [compound 120159] | – | – | 3.29 | > 20 | –
C=C[C@H]1C[C@@H](C)C[C@@H](C)[C@@H]1c1c(O)ccn(O)c1=O [compound 130034, Pyridoxatin] | – | – | > 8.56 | > 20 | –
CN1C(=O)[C@]2(Cc3cn([C@]45C[C@@]67SS[C@@](CO)(C(=O)N6[C@H]4Nc4ccccc45)N(C)C7=O)c4ccccc34)SS[C@@]1(CO)C(=O)N2C [compound 170066, Chetomin] | 0.0622 ± 0.00375 | 0.369 ± 0.0726 | – | – | –
CC1=C[C@@H]2/C=C(\C)CC[C@H](O)[C@H](O)/C=C/C(=O)[C@]23C(=O)N[C@@H](CC(C)C)[C@@H]3[C@@H]1C [compound 170081, Aspochalasin D] | 1.27 | 30.3 | – | – | –
Alpha-cyclopiazonic acid [compound 170027] | – | – | 1.13 | > 40 | –
CC(O)[C@@]12SS[C@]3(C(=O)N1C)[C@@H](O)C1([C@@]45c6ccccc6N[C@@H]4N4C(=O)[C@]6(C(C)O)SS[C@]4(C(=O)N6C)[C@H]5O)c4ccccc4N[C@@H]1N3C2=O (some centres unmarked) [compound 130016, Verticillin D] | – | – | 0.0362 ± 0.0018 | 0.9432 ± 0.0064 | –
COC(=O)C12Oc3c(c(O)cc4c3C3C=CC5(C4)C(=O)c4cc(C)cc(O)c4C(O)=C5C3=O)C(O)=C1C(=O)CCC2O (centres unmarked) [compound 130143, Xanthoquinodin B2] | 0.131 ± 0.0365 | > 20 | – | – | IC50 [3, 6]: 1.01 µM
Verticillin [compound 130038] | – | – | 0.079 ± 0.0293 | 0.0824 ± 0.0418 | IC50 [3, 6]: 0.501 µM
COC(=O)c1c(Sc2c(O)cc(OC)c(C(=O)c3c(O)cc(C)cc3O)c2C(=O)OC)c(O)cc(OC)c1C(=O)c1c(O)cc(C)cc1O [compound 150052, Polluxochrin] | 0.801 ± 0.163 | > 60 | – | – | –
COC(=O)C1=CC(O)C(O)C(O)C1N1CC(O)C(OC(C)=O)C1Cc1ccc(OC)cc1 (centres unmarked) [compound 150029] | 0.585 ± 0.0146 | 28.5 | – | – | IC50 at 48 h (in vitro; confluent human foreskin fibroblast (HFF) cells): 28.5 ± 2.4 µM
CC[C@](C)(NC(=O)[C@H](CC(C)C)NC(=O)[C@H](C)NC(=O)C(C)(C)NC(=O)[C@@H]1CCCCN1C(=O)C(C)(C)NC(=O)C(C)(C)NC(=O)CNC(=O)CCNC(=O)[C@H](CC(C)C)NC(=O)C(C)(C)NC(=O)[C@](C)(CC)NC(=O)[C@@H]1CCCCN1C(=O)C(C)(C)NC(=O)[C@@H]1CCCCN1C(C)=O)C(=O)N[C@@H](CC(C)C)CN1CCC[N+]2=C1CCC2 [compound 150004, Efrapeptin G] (Ac-[Pip][Aib][Pip][Iva][Aib]L[βAla]G[Aib][Aib][Pip][Aib]AL[Iva]-X1; N-terminus and C-terminus assumed) | – | – | 0.0123 ± 0.0023 | > 20 | IC50 ([3]; ref Lee et al. ([8])): 0.46 µM
CCC(=O)CCCCCC1NC(=O)C2CCCCN2C(=O)C(C(C)C)NC(=O)C(Cc2cn(OC)c3ccccc23)NC1=O (centres unmarked) [compound 120251, Apicidin C] | 0.0259 ± 0.0102 | > 20 | – | – | IC50 [3, 6]: 0.236 µM
COc1c(C[C@@H](C)OC(=O)Oc2ccc(O)cc2)c2c3c(C[C@@H](C)OC(=O)c4ccccc4)c(OC)c(=O)c4c(O)cc(OC)c(c5c(OC)cc(O)c(c1=O)c52)c43 [compound 170068, Calphostin C] | 1.14 | > 20 | – | – | IC50 [3, 6]: 0.41 µM
C[C@H]1Cc2c([nH]c3cc(Cl)c(F)cc23)[C@@]2(N1)C(=O)Nc1ccc(Cl)cc12 [KAE609, reference compound] | 0.44 ± 0.0348 | > 20 | – | – | –
CO[C@@H]1[C@H](OC(=O)/C=C/C=C/C=C/C=C/C(=O)O)CC[C@]2(CO2)[C@H]1[C@@]1(C)O[C@@H]1CC=C(C)C [compound 150046, Fumagillin] | 0.0588 ± 0.0073 | > 20 | – | – | IC50 (in vitro): > 60 µM; toxicity to HFFs ([2]; highest concentration tested (60 µM)): lack of toxicity; IC50 [3, 6]: 1.31 µM
CC[C@](C)(NC(=O)[C@H](CC(C)C)NC(=O)[C@H](C)NC(=O)C(C)(C)NC(=O)[C@@H]1CCCCN1C(=O)C(C)(C)NC(=O)C(C)(C)NC(=O)CNC(=O)CCNC(=O)[C@H](CC(C)C)NC(=O)C(C)(C)NC(=O)[C@](C)(CC)NC(=O)[C@@H]1CCCCN1C(=O)C(C)(C)NC(=O)[C@@H]1CCCCN1C(C)=O)C(=O)N[C@@H](CC(C)C)C[N+]1=C2CCCN2CCC1 [compound 150004, Efrapeptin G] (Ac-[Pip][Aib][Pip][Iva][Aib]L[βAla]G[Aib][Aib][Pip][Aib]AL[Iva]-X2) | – | – | – | – | toxicity to HFFs [2, 7]: no toxicity
CN(C)c1ccc2nc3ccc(=[N+](C)C)cc-3sc2c1 [Methylene blue, reference compound] | 0.258 ± 0.00095 | > 20 | – | – | –
